pIC50: −log10 of the molar value. Read-outs that look alike come from different tables or passages of the source.
Key:
EGFR wild type = biological target: T1, EGFR wild type (Homo sapiens, UniProt P00533); test: Inhibition of EGFR wild type biochemical enzymatic activity (HTRF); details: 1 mM ATP; for pIC50: EGFR wild type, 1 h at room temperature, read-out: IC50 @WT; for IC50: EGFR WT, 1 h, room temperature, read-out: IC50 (nM) @WT
T1 construct: purchased Carna Bio
In short: (§1)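 For IC50 determination by four-parameter logistic fit, EDTA-quenched 1 h room-temperature reactions (1 mM ATP, 1 μM TK Substrate-biotin) were read by HTRF. The 665/615 nm emission ratio after 320 nm excitation served as the activity signal.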

EGFR Exon19Del/T790M = biological target: T2, EGFR Exon19Del/T790M (Homo sapiens, UniProt P00533, DEL746-750/T790M); test: Inhibition of EGFR Exon19Del/T790M biochemical enzymatic activity (HTRF); details: 1 mM ATP; for pIC50: EGFR Exon19Del/T790M, 1 h at room temperature, read-out: IC50 @Del19-T790M; for IC50: EGFR Del19-T790M, 1 h, room temperature, read-out: IC50 (nM) @Del19-T790M
T2 construct: purchased Carna Bio
T2 sequence (P00533 with tags, fused parts or gaps DEL746-750/T790M limits assumed): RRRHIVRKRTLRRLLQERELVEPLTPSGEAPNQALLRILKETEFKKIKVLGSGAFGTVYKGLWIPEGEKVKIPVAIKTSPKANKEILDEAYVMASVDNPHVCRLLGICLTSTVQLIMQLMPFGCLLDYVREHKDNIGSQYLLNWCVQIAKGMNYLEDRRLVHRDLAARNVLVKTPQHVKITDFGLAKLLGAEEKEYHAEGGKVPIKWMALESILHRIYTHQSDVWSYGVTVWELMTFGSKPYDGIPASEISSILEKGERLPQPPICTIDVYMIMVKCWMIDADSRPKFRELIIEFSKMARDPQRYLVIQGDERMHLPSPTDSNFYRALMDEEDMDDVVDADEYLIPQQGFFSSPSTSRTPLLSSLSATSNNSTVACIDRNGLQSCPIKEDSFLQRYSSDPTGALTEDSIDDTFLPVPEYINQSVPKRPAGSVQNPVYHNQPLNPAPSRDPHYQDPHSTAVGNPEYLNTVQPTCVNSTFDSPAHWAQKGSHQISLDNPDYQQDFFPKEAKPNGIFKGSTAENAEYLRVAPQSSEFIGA
In short: as §1

EGFR L858R = biological target: T3, EGFR L858R (Homo sapiens, UniProt P00533, L858R); test: Inhibition of EGFR L858R biochemical enzymatic activity (HTRF); details: 1 mM ATP; for pIC50: 1 h at room temperature, read-out: IC50 @L858R; for IC50: 1 h, room temperature, read-out: IC50 (nM) @L858R
T3 construct: purchased Carna Bio
In short: as §1

EGFR (d746-750 C797S) = biological target: T4, EGFR (d746-750 C797S) (Homo sapiens, UniProt P00533, C797S/DEL746-750); test: Inhibition of EGFR (d746-750 C797S) biochemical enzymatic activity (HTRF); details: 1 mM ATP; for pIC50: EGFR (d746-750 C797S), 1 h at room temperature, read-out: IC50 @Del19-C797S; for IC50: EGFR Del19-C797S, 1 h, room temperature, read-out: IC50 (nM) @Del19-C797S
T4 construct: purchased signalchem
T4 sequence (P00533 with tags, fused parts or gaps DEL746-750/C797S limits assumed): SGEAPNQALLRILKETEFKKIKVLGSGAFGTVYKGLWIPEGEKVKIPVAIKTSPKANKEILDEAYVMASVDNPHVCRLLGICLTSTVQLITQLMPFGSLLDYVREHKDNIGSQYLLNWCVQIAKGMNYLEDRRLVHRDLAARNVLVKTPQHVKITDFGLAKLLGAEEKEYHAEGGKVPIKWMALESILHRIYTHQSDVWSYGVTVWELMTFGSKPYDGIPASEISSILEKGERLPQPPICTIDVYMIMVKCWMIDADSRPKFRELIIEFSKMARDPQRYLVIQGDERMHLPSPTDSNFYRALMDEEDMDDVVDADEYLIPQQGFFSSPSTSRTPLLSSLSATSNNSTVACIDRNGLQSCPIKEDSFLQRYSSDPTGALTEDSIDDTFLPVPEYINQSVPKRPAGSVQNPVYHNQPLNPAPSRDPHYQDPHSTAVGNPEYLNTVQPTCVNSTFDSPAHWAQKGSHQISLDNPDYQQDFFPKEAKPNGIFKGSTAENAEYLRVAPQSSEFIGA
In short: as §1

[1] = biological target: T5, EGFR[T790M/C797S/d746-750] (Homo sapiens, UniProt P00533, C797S/DEL746-750/T790M); test: Inhibition of EGFR[T790M/C797S/d746-750] biochemical enzymatic activity (HTRF); details: for pIC50: EGFR[T790M/C797S/d746-750], 1 mM ATP, 1 h at room temperature, read-out: IC50 @T790M - C797S - Del19; for IC50: EGFR T790M-C797S-Del19, 1 mM ATP, 1 h, room temperature, read-out: IC50 (nM) @T790M - C797S - Del19
T5 construct: purchased Carna Bio
T5 sequence (P00533 with tags, fused parts or gaps DEL746-750/T790M/C797S limits assumed): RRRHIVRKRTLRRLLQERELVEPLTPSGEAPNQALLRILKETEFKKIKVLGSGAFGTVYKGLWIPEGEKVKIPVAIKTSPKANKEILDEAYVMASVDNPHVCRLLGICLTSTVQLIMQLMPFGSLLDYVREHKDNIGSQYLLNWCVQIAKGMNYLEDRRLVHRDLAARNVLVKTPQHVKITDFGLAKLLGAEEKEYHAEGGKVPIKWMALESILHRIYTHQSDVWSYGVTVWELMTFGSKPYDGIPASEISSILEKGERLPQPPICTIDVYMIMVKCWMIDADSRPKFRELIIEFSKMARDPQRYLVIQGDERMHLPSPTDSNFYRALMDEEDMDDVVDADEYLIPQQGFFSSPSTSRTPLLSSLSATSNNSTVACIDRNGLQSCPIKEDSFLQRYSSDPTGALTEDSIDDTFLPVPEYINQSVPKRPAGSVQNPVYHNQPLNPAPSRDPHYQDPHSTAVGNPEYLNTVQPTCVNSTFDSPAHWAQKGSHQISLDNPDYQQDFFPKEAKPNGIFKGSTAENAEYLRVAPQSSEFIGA
In short: as §1

[2] = tested on: Ba/F3 cells expressing EGFR mutations; test: Cell proliferation assay, Ba/F3 cells expressing EGFR mutations (CellTiter-Glo, 72 hours); assay type: cell-based
In short: (§2)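 Cells are exposed to graded compound concentrations after overnight plating, using 500 PC-9 or 5000 Ba/F3 per well. Baseline-subtracted viability is compared with vehicle to give percent proliferation, then GI50.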

A-431 = test: Cell proliferation assay, A-431 cells (GI50, Table 6); assay type: cell-based
EGFR L858R/T790M = biological target: T6, EGFR L858R/T790M (Homo sapiens, UniProt P00533, L858R/T790M); test: Inhibition of EGFR L858R/T790M biochemical enzymatic activity (HTRF); details: 1 mM ATP; for pIC50: EGFR L858R/T790M, 1 h at room temperature, read-out: IC50 @L858R-T790M; for IC50: EGFR L858R-T790M, 1 h, room temperature, read-out: IC50 (nM) @L858R-T790M
T6 construct: purchased Carna Bio
In short: as §1

EGFR[T790M/C797S/L858R] = biological target: T7, EGFR[T790M/C797S/L858R] (Homo sapiens, UniProt P00533, C797S/L858R/T790M); test: Inhibition of EGFR[T790M/C797S/L858R] biochemical enzymatic activity (HTRF); details: 1 mM ATP; for pIC50: EGFR[T790M/C797S/L858R], 1 h at room temperature, read-out: IC50 @T790M- C797S - L858R; for IC50: EGFR T790M-C797S-L858R, 1 h, room temperature, read-out: IC50 (nM) @T790M- C797S - L858R
T7 construct: purchased Carna Bio
In short: as §1

PC-9 = test: Cell proliferation assay, PC-9 cells (CellTiter-Glo, 72 hours); assay type: cell-based; details: PC9 cells, read-out: GI50 PC9
In short: as §2

EGFR Exon19Del = biological target: T8, EGFR Exon19Del (Homo sapiens, UniProt P00533, DEL746-750); test: Inhibition of EGFR Exon19Del biochemical enzymatic activity (HTRF); details: read-out: IC50 @Del19
T8 construct: purchased Carna Bio
T8 sequence (P00533 with tags, fused parts or gaps DEL746-750 limits assumed): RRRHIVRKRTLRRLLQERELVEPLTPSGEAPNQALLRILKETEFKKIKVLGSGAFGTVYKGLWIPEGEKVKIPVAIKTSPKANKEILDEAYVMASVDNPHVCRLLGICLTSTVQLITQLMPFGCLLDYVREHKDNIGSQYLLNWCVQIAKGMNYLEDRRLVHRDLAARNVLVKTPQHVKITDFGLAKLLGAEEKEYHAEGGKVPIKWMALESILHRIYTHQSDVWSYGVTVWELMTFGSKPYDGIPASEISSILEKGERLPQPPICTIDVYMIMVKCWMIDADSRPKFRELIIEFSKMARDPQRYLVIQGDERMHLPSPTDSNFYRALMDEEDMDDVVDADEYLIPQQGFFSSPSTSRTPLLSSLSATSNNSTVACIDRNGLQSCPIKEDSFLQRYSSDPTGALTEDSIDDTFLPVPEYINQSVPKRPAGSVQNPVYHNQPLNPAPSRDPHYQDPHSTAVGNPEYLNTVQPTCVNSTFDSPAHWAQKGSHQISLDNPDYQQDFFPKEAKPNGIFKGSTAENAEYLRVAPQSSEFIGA
In short: as §1

EGFR (C797S L858R) = biological target: T9, EGFR (C797S L858R) (Homo sapiens, UniProt P00533, C797S/L858R); test: Inhibition of EGFR (C797S L858R) biochemical enzymatic activity (HTRF); details: 1 mM ATP; for pIC50: EGFR (C797S L858R), 1 h at room temperature, read-out: IC50 @L858-C797S; for IC50: EGFR L858-C797S, 1 h, room temperature, read-out: IC50 (nM) @L858-C797S
T9 construct: purchased signalchem
T9 sequence (P00533 25-1210 C797S/L858R): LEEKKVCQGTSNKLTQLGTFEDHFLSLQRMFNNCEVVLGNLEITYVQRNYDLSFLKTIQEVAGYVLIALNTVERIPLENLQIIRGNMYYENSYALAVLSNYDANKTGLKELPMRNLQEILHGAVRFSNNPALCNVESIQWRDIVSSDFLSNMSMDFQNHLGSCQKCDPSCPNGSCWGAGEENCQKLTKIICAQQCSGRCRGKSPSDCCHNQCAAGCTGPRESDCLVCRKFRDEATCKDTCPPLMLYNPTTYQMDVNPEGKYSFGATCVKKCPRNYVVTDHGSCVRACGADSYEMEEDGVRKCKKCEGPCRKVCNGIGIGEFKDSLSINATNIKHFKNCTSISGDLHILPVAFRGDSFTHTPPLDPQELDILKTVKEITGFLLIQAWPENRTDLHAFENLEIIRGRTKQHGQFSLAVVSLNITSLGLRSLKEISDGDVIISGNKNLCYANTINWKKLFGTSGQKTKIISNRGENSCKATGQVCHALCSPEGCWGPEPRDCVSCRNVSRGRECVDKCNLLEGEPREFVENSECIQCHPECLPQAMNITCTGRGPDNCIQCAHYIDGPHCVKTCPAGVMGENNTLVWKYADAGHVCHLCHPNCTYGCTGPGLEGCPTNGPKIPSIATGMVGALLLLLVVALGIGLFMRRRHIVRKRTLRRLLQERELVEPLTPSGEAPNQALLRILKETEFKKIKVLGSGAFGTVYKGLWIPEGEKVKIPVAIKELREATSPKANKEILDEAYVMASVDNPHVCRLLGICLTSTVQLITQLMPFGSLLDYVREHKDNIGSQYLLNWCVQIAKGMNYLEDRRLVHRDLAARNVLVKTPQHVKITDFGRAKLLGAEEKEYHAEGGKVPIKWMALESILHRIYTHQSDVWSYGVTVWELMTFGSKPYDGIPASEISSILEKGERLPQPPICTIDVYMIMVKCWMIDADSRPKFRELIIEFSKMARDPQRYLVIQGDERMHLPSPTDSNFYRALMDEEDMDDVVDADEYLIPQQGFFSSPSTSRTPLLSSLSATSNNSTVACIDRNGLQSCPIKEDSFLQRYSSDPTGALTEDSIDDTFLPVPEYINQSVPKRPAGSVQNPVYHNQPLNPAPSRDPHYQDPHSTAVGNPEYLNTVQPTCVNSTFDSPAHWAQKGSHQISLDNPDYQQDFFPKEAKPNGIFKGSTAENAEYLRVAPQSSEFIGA
In short: as §1

[3] = BaF3 cells, EGFR DEL19 - C797S, read-out: GI50 DEL19 - C797S/BaF3
[4] = BaF3 cells, EGFR DEL19 - T790-C797S, read-out: GI50 DEL19 - T790-C797S/BaF3
[5] = BaF3 cells, EGFR L858R - C797S, read-out: GI50 L858R - C797S/BaF3
[6] = BaF3 cells, EGFR L858R - T790-C797S, read-out: GI50 L858R - T790-C797S/BaF3
[7] = BaF3 cells, EGFR L858R - T790M, read-out: GI50 L858R - T790M/BaF3
[8] = BaF3 cells, EGFR L858R, read-out: GI50 L858R/BaF3
[9] = EGFR DEL19 - T790M, read-out: GI50 DEL19 - T790M
[10] = EGFR Exon19Del, 1 mM ATP, 1 h at room temperature
[11] = Mus musculus, BaF3, 72 h, BaF3 cells, EGFR DEL19 - C797S, read-out: GI50 DEL19 - C797S/BaF3
[12] = Mus musculus, BaF3, 72 h, BaF3 cells, EGFR DEL19 - T790-C797S, read-out: GI50 DEL19 - T790-C797S/BaF3
[13] = Mus musculus, BaF3, 72 h, BaF3 cells, EGFR L858R - C797S, read-out: GI50 L858R - C797S/BaF3
[14] = Mus musculus, BaF3, 72 h, BaF3 cells, EGFR L858R - T790-C797S, read-out: GI50 L858R - T790-C797S/BaF3
[15] = Mus musculus, BaF3, 72 h, BaF3 cells, EGFR L858R - T790M, read-out: GI50 L858R - T790M/BaF3
[16] = Mus musculus, BaF3, 72 h, BaF3 cells, EGFR L858R, read-out: GI50 L858R/BaF3
[17] = Mus musculus, BaF3, 72 h, EGFR DEL19 - T790M, read-out: GI50 DEL19 - T790M
[18] = Homo sapiens, A-431, A-431 cells
[19] = EGFR Del19, 1 mM ATP, 1 h, room temperature

T1 sequence (P00533 25-1210): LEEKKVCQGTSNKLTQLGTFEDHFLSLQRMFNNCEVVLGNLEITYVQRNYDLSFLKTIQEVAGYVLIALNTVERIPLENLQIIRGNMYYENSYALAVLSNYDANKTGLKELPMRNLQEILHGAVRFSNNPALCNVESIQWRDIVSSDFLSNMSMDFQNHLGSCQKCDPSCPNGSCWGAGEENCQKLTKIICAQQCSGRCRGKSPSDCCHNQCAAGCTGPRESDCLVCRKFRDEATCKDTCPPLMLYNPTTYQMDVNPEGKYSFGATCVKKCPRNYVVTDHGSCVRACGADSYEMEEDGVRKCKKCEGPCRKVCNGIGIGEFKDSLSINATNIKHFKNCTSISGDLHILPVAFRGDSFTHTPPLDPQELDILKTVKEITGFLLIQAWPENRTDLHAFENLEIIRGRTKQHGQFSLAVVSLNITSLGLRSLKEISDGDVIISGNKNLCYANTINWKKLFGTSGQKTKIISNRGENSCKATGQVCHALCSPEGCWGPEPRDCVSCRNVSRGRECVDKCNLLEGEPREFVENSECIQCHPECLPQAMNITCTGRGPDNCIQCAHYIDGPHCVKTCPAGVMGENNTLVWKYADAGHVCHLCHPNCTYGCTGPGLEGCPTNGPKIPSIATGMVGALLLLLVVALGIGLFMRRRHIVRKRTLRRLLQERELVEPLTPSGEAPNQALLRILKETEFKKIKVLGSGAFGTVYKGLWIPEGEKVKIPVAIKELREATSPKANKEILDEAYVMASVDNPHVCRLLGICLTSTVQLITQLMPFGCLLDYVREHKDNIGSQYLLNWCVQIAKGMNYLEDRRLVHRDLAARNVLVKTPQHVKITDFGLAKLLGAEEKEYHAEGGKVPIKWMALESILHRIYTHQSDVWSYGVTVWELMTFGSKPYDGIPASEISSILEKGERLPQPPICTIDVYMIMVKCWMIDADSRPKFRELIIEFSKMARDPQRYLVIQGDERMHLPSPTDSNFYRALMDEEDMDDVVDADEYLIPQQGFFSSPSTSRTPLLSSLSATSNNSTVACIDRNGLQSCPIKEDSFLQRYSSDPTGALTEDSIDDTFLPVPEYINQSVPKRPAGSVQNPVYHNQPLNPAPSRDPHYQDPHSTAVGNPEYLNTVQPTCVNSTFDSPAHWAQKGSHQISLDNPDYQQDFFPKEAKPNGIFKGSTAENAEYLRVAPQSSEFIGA

## Cc1cc2cc(n1)-c1cnn(C)c1OCCN1CC3CCC(C3)(C1)n1c(nc3ccc(N4CCOCC4)cc31)NC2=O (single isomer, unassigned) [Example B10B, 15,21-Dimethyl-5-(morpholin-4-yl)-23-oxa-2,9,11,16,20,21,26-heptaazaheptacyclo[24.4.1.1^{1,28}.1^{13,17}.0^{2,10}.0^{3,8}.0^{18,22}]tritriaconta-3,5,7,9,13,15,17(33),18(22),19-nonaen-12-one]
EGFR wild type
  pIC50: < 5.30
EGFR Exon19Del/T790M
  pIC50: < 5.30
EGFR L858R
  pIC50: < 5.30
EGFR (d746-750 C797S)
  pIC50: 5.84
[1]
  pIC50: 5.39
[2]; [3]
  GI50: 403 nM
[2]; [4]
  GI50: 516 nM
[2]; [5]
  GI50: 1580 nM
[2]; [6]
  GI50: 595 nM
[2]; [7]
  GI50: 539 nM
[2]; [8]
  GI50: 2910 nM
[2]; [9]
  GI50: 765 nM
A-431; A-431 cells
  GI50: 5520 nM
EGFR L858R/T790M
  pIC50: < 5.30
EGFR[T790M/C797S/L858R]
  pIC50: < 5.30
PC-9
  GI50: 2620 nM
EGFR Exon19Del; [10]
  pIC50: 5.97
EGFR (C797S L858R)
  pIC50: < 5.30

## COCCN(C)c1ccc2nc3n(c2c1)C12CCC(CN(CCOc4c(cnn4C)-c4cc(cc(C)n4)C(=O)N3)C1)C2 (single isomer, unassigned) [Example B46A]
EGFR wild type
  pIC50: < 5.30
EGFR Exon19Del/T790M
  pIC50: < 5.30
EGFR L858R
  pIC50: < 5.30
EGFR (d746-750 C797S)
  pIC50: < 5.30
[1]
  pIC50: < 5.30
[2]; [3]
  GI50: 977 nM
[2]; [4]
  GI50: 492 nM
[2]; [5]
  GI50: 2500 nM
[2]; [6]
  GI50: 198 nM
[2]; [7]
  GI50: 919 nM
[2]; [8]
  GI50: 7610 nM
[2]; [9]
  GI50: 497 nM
A-431; A-431 cells
  GI50: 7830 nM
EGFR L858R/T790M
  pIC50: < 5.30
EGFR[T790M/C797S/L858R]
  pIC50: < 5.30
PC-9
  GI50: 3050 nM
EGFR Exon19Del; [10]
  pIC50: < 5.30
EGFR (C797S L858R)
  pIC50: < 5.30

## CN(C)[C@H]1CCN(c2ccc3nc4n(c3c2)C23CCC(CC2)CN(CCOc2c(cnn2C)-c2cc(cn(C)c2=O)C(=O)N4)C3)C1 [Example A120]
EGFR wild type
  IC50: > 5000 nM
EGFR Exon19Del/T790M
  IC50: 16 nM
EGFR L858R
  IC50: 177 nM
EGFR (d746-750 C797S)
  IC50: 14 nM
[1]
  IC50: 15 nM
[2]; [11]
  GI50: 13 nM
[2]; [12]
  GI50: 71 nM
[2]; [13]
  GI50: 50 nM
[2]; [14]
  GI50: 28 nM
[2]; [15]
  GI50: 113 nM
[2]; [16]
  GI50: 8.1 nM
[2]; [17]
  GI50: 40 nM
A-431; [18]
  GI50: 7850 nM
EGFR L858R/T790M
  IC50: 374 nM
EGFR[T790M/C797S/L858R]
  IC50: 113 nM
PC-9; Homo sapiens, PC-9, 72 h
  GI50: 54 nM
EGFR Exon19Del; [19]
  pIC50: 7.66
EGFR (C797S L858R)
  IC50: 108 nM

## Cn1ncc2c1OCCN1CC3CCC(CC3)(C1)n1c(nc3cc(F)c(N4CCOCC4)cc31)NC(=O)c1cc-2c(=O)n(C)c1 [Example A113, 6-Fluoro-15,21-dimethyl-5-(morpholin-4-yl)-23-oxa-2,9,11,15,20,21,26-heptaazaheptacyclo[26.2.2.1^{1,26}.1^{13,17}.0^{2,10}.0^{3,8}.0^{18,22}]tetratriaconta-3,5,7,9,13,17(34),18(22),19-octaene-12,16-dione]
EGFR wild type
  IC50: > 5000 nM
EGFR Exon19Del/T790M
  IC50: 32 nM
EGFR L858R
  IC50: 439 nM
EGFR (d746-750 C797S)
  IC50: 1200 nM
[1]
  IC50: 45 nM
[2]; [11]
  GI50: 15 nM
[2]; [12]
  GI50: 108 nM
[2]; [13]
  GI50: 172 nM
[2]; [14]
  GI50: 230 nM
[2]; [15]
  GI50: 255 nM
[2]; [16]
  GI50: 121 nM
[2]; [17]
  GI50: 63 nM
A-431; [18]
  GI50: 4690 nM
EGFR L858R/T790M
  IC50: 230 nM
EGFR[T790M/C797S/L858R]
  IC50: 900 nM
PC-9; Homo sapiens, PC-9, 72 h
  GI50: 147 nM
EGFR Exon19Del; [19]
  pIC50: 7.39
EGFR (C797S L858R)
  IC50: 46 nM

Reference: US20260365670A1, “EGFR INHIBITORS AND USES THEREOF” (DIZAL (JIANGSU) PHARMACEUTICAL CO., LTD., priority 2022, published 2026)
